In PubChem BioAssay (NCI):
Where “and” joins values, the source holds several entries; their conditions need not be identical. Identical values can stand only once.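 Five compound concentrations were applied to cells in 96-well plates for 48 hours; endpoints were derived by simple linear interpolation of the resulting dose-response curve. GI50: concentration for 50% inhibition of growth. TGI is the concentration that stops growth completely.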

Assays:
Assay in all cases: NCI tumour cell line growth inhibition, 48 h
HOP-18 NSCLC = tested on: HOP-18 NSCLC
DMS 273 small cell lung = tested on: DMS 273 small cell lung
SN12K1 renal = tested on: SN12K1 renal
SNB-78 CNS = tested on: SNB-78 CNS
DMS 114 small cell lung = tested on: DMS 114 small cell lung
P388/ADR leukemia = tested on: P388/ADR leukemia
M19-MEL melanoma = tested on: M19-MEL melanoma
XF 498 CNS = tested on: XF 498 CNS
KM20L2 colon = tested on: KM20L2 colon
LXFL 529 NSCLC = tested on: LXFL 529 NSCLC
RXF-631 renal = tested on: RXF-631 renal

Compound	TGI (HOP-18 NSCLC)	TGI (DMS 273 small cell lung) [µM]	TGI (SN12K1 renal) [µM]	TGI (SNB-78 CNS) [µM]	TGI (DMS 114 small cell lung)	TGI (P388/ADR leukemia) [µM]	TGI (M19-MEL melanoma)	TGI (XF 498 CNS) [µM]	TGI (KM20L2 colon) [µM]	TGI (LXFL 529 NSCLC)	TGI (RXF-631 renal)	GI50 (HOP-18 NSCLC) [µM]	GI50 (SN12K1 renal) [µM]	GI50 (SNB-78 CNS) [µM]	GI50 (P388/ADR leukemia) [µM]	GI50 (LXFL 529 NSCLC) [µM]	GI50 (XF 498 CNS) [µM]	GI50 (DMS 114 small cell lung) [µM]	GI50 (M19-MEL melanoma) [µM]	GI50 (KM20L2 colon) [µM]
CN(c1ccccc1)c1c(-c2ccccc2)c(=O)oc2c1ccc1occc12	> 100 µM	> 100	> 100	> 100	> 100 µM	> 100	> 100 µM	–	–	–	–	–	–	–	–	–	–	–	–	–
CC12CC(=O)NN=C1c1ccccc1C2 (configuration not stated)	–	> 100	–	> 100	> 100 µM	–	> 100 µM	> 100	> 100	–	–	–	–	–	–	–	–	–	–	–
O=c1c2cc(Cl)ccc2n2nnc3ccc(NCCNCCO)c1c32	–	2.45	–	9.39	3.59 µM	–	3.28 µM	–	2.72	3.51 µM	3.05 µM	–	–	–	–	–	–	–	–	–
CC1Oc2c(c(O)cc3oc(=O)cc(-c4ccccc4)c23)C(=O)C1C (configuration not stated)	> 100 µM	> 100	–	> 100	–	–	–	> 100	> 100	> 100 µM	> 100 µM	–	–	–	–	–	–	–	–	–
Cc1ccc(NC(=O)NC23CC4CC(CC(F)(C4)C2)C3)cc1	–	> 100	–	> 100	> 100 µM	–	> 100 µM	> 100	> 100	> 100 µM	–	–	–	–	–	–	–	–	–	–
O.O=[Se](=O)(O)O.[NH-]C1CCCCC1[NH-].[Pt+2] (configuration not stated)	> 100 µM	–	> 100	> 100	–	> 100	> 75.6 µM	–	> 100	–	–	> 100	> 30.4	48.4	7.22	–	–	–	–	–
COc1ccc(CNc2cnc3cc(N)ccc3n2)cc1OC	–	> 100	–	–	> 100 µM	–	> 100 µM	–	–	–	–	–	–	–	–	–	–	–	–	–
CC(=O)Nc1[nH]c(=O)[nH]c(=O)c1N(C(C)=O)C(C)=O	–	> 100	–	> 100	> 100 µM	–	> 100 µM	> 100	> 100	> 100 µM	–	–	–	–	–	–	–	–	–	–
O=C(c1ccccc1)c1ccc2c(c1)N=C(c1ccc(Cl)c(Cl)c1)CC(c1ccc3ccccc3c1)N2 (configuration not stated)	–	> 100	–	> 100	> 100 µM	–	> 100 µM	> 100	> 100	> 100 µM	> 100 µM	–	–	–	–	–	–	–	–	–
COc1ccc(/C(Cl)=C(\C=O)c2ccc(Cl)cc2)cc1	> 100 µM	> 100	–	> 100	32.5 µM	–	75.4 µM	–	33.2	51 µM	47.6 µM	–	–	–	–	–	–	–	–	–
C#Cc1ccccc1C(=O)OC	> 100 µM	> 100	–	–	> 100 µM	–	–	> 100	> 100	–	–	–	–	–	–	–	–	–	–	–
COc1cccc2c1C(=O)c1c(O)c3c(c(O)c1C2=O)C[C@](O)(C(=O)CO)CC3OC1CC(N)C(OC2CCCCO2)C(C)O1 (some centres not stated)	3 µM	1.22	0.879	6.02	–	> 100	–	0.684	4.84	–	–	–	–	–	–	–	–	–	–	–
Nc1ncnc2c(C3OC(CO)C(O)C3O)c[nH]c12 (configuration not stated)	0.497 µM and 1.34 µM	0.116	–	1.12	0.0304 µM and 0.0184 µM	–	0.196 µM and 0.423 µM	0.168	1.1	0.189 µM and 0.153 µM	0.56 µM and 0.533 µM	–	–	–	–	–	–	–	–	–
C=C1C(=O)OC2C1CC1OC2C(C)CCC/C(C)=C\CCC1(C)O (configuration not stated)	19.7 µM	53.1	40.2	42.9	33 µM	58.2	29 µM	38.9	81.9	–	–	–	–	–	–	–	–	–	–	–
CCC[CH2][Ge]([CH2]CCC)([CH2]CCC)[O]C(=O)CCl	24 µM	–	–	–	10.2 µM	–	23.2 µM	21.1	23.5	17.1 µM	–	11.7	–	–	–	1.98	8.63	0.316	11.1	2.95
